The record followed here is the supplement of paper PMC9013687.

For this assay, the system named is Danio rerio embryo. Nature of the assay: EC10 Head-trunk angle_Decrease; higher = less potent. Particulars: exposure time: 2 dpf. The procedure:
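Zebrafish embryos (UFZ-OBI strain) were exposed from 2 hpf for 48 h (2 dpf) or 96 h (4 dpf) at 28 °C; spontaneous tail coiling was scored at 25 hpf. Morphological features from automated image analysis (FishInspector), heart rate and locomotor response were fitted with drc models. Quantal endpoints were dichotomised at 2.5 SD from controls and fitted with a log-logistic model; heart rate, pigmentation and STC were normalised to the replicate control mean. Betamethasone was tested as betamethasone dipropionate, diflorasone as diflorasone diacetate.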

As for `C[Si](Cn1cncn1)(c1ccc(F)cc1)c1ccc(F)cc1` [Flusilazole], the “EC10 Head-trunk angle Decrease” value was 4.35 µM.
